Data taken from patent US20260033988A1, “SYSTEM AND METHOD FOR ULTRASOUND-ENHANCED DELIVERY OF DRUGS” (Sonikure Holdings Limited, priority 2016, published 2026).
One block for each compound: values may come before it.

What was measured:
[1] = Ultrasound delivery of Riboflavin-5-Phosphate into porcine corneas, fluorescent measurement of extract; conditions: epi-off; 0.1% solution; ultrasound 40 kHz, mechanical index 0.2, for 5 minutes or less
Description: Riboflavin-5-Phosphate (R5P), 1.5 mL, 0.1% solution was applied to a porcine eyeball, epi-off. The ultrasound parameters were 40 kHz, mechanical index 0.2. The cornea was in full contact with R5P over indicated time period. The cornea was excised and weighed. Extracted supernatant with R5P was used for fluorescent measurement.

[2] = system: experimental autoimmune uveitis (EAU); test: In vivo delivery of dexamethasone into mice eyes for treatment of experimental autoimmune uveitis (ultrasound versus intravitreal injection)
Description: The procedure relates to an in vivo study of delivering small molecules into mice eyes for treatment of experimental autoimmune uveitis (EAU). The small molecules used were dexamethasone, with of a molecular weight of about […]. For a given animal subject, the drug was delivered via intravitreal injection (10 μg in 1 μL balanced salt solution), to the left eye. For the right eye, the drug (10 μg in 1 μL balanced salt solution, repeat 3 times) was delivered by 40 kHz ultrasound.
A timeline is illustrated of the experimental procedure. EAU mice were provided as described. The final n=2, as one mouse was dead on day 10 during the first treatment. On day 0, EAU induction occurred. Baseline imaging by confocal scanning laser ophthalmology (cSLO) and optical coherence tomography (OCT) occurred on day 0. On day 10, the drug was applied via ultrasound on the right eye. The drug was applied via intravitreal injection to the left eye. On day 13, imaging was conducted via cSLO and OCT. On days 13, 17, and 20, the drug was delivered to the right eye via ultrasound. On day 21, the mice were sacrificed for histology. Imaging was conducted by cSLO and OCT.

[3] = Ultrasound delivery of riboflavin into ex vivo pig corneas; parameters: species or system porcine
Description: For example, a riboflavin molecule may be delivered into a cornea by ultrasound. An ex vivo study was conducted of delivering small molecules into porcine corneal tissue. The small molecules used was riboflavin. The small molecules may have a molecular weight of about 376 g/mol or less. By using ultrasound at 40 kHz, at least 15 μg/mL of riboflavin was delivered into the deep corneal stromal tissue.
An illustration is provided of riboflavin 1 mg/mL delivered into ex vivo pig corneas. The riboflavin concentration in μg/mL is shown for different circumstances, such as epithelium debrided (Epi-off) cornea with 30 minutes riboflavin contact, Epi-Off with 3 cycles of 90 seconds ultrasound+15 minutes breaks in between and Epi-Off with 3 cycles of 90 seconds ultrasound+5 minutes break in between. 0.1% Riboflavin solution, Peschke D was delivered in ex-vivo pig corneas. The 15 μg/mL safety threshold is exceeded by applying 3 cycles of 90 seconds ultrasound with 5 minute breaks in between.

concentration delivered into porcine corneas compared with typical Dresden protocol (30 minutes instillation) [1]: reached the therapeutic threshold
Compound: Cc1cc2nc3c(=O)[nH]c(=O)nc-3n(C[C@H](O)[C@H](O)[C@H](O)COP(=O)(O)O)c2cc1C [Riboflavin-5-Phosphate]

Compound: C[C@@H]1C[C@H]2[C@@H]3CCC4=CC(=O)C=C[C@]4(C)[C@@]3(F)[C@@H](O)C[C@]2(C)[C@@]1(O)C(=O)CO [dexamethasone]
retina injury (FFA photo and OCT sections) ([2]; left eye, intravitreal injection 10 μg in 1 μL, retinal change still existed at day 21): retina injury caused by intravitreal injection
retina injury (fundus photos, FFA) ([2]; right eye of Mouse 1 and Mouse 2, drug delivered by 40 kHz ultrasound, days 13 and 21): no injury of retina

riboflavin delivered into the deep corneal stromal tissue ([3]; ex vivo porcine cornea, ultrasound at 40 kHz): at least 15 μg/mL
Compound: Cc1cc2nc3c(=O)[nH]c(=O)nc-3n(C[C@H](O)[C@H](O)[C@H](O)CO)c2cc1C [riboflavin]
riboflavin concentration in cornea versus 15 μg/mL safety threshold ([3]; ex vivo pig cornea, Epi-Off, 0.1% riboflavin solution, 3 cycles of 90 seconds ultrasound with 5 minute breaks in between): > 15 µg/mL
